Data from patent US7868007B2, “Triazolopyridine carboxamide derivatives, preparation thereof and therapeutic use thereof” (sanofi-aventis, priority 2007, dated 2011).

What was measured:
[1] = target: T1, MGL (monoacyl glycerol lipase) enzyme (Mus musculus, UniProt O35678); test: radioenzymatic assay of MGL inhibition (hydrolysis of [3H] 2-OG by mouse brain homogenate); type: biochemical; details: 50 μM 2-OG with [3H] 2-OG, 20 minutes preincubation, 20 minutes incubation at ambient temperature, read-out: IC50 (concentration which inhibits 50% of the control enzymatic activity of MGL)
T1 construct: the source of MGL enzyme is a homogenate of mouse brain from which the cerebellum and the medulla oblongata have been removed; from tissue; host or cells: mouse brain homogenate (cerebellum and medulla oblongata removed)
T1 sequence (O35678 1-303): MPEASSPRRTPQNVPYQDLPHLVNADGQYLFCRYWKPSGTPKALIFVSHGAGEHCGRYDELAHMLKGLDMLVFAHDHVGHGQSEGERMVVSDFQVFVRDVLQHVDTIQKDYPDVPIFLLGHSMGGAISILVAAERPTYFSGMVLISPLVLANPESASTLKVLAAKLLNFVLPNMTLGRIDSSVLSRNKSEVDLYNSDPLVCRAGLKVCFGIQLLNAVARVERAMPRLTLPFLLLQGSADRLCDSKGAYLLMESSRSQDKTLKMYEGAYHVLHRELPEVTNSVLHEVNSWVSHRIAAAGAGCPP
Method: The inhibitory activity with respect to MGL is given by the concentration which inhibits 50% of the activity of MGL.
The inhibitory activity was measured in a radioenzymatic assay based on measuring the product of hydrolysis of 2-oleoyl glycerol ([^3H] 2-OG) by MGL. The products of hydrolysis of [^3H] 2-OG, labeled on the glycerol, are oleic acid and [^3H]glycerol, and the source of MGL enzyme is a homogenate of mouse brain from which the cerebellum and the medulla oblongata have been removed. The mouse brains are removed, and stored at −80° C. until they are used or homogenized immediately for twice 5 seconds using a Precellys apparatus at 5000 rpm (Bertin) in a 10 mM tris-HCl, 150 mM NaCl, 1 mM EDTA buffer (pH 8) at 4° C. The concentration of the homogenates is then adjusted to 7.5 μg/μl.
The dilution series of the compounds is prepared from stock solutions at 20 mM in 100% DMSO. […]
Assaying of the MGL activity is carried out in a 96-well microplate in a final reaction volume of 100 μl. […] After stirring for 10 minutes, the microplate is centrifuged for 15 minutes at 4000 g and a 30 μl aliquot of the aqueous phase containing the [^3H]glycerol produced is removed and then counted for 5 minutes by liquid scintillation (Wallac 1450 Microbeta).

SMILES | IC50 [1] [µM] | melting point
O=C(N1CCN(C(c2ccccc2)c2ccccc2)CC1)n1nnc2ncccc21 [Compound 1, (4-Benzhydrylpiperazin-1-yl)[1,2,3]triazolo[4,5-b]pyridin-1-ylmethanone] | 0.004 | 146 to 148 °C (dec.)
O=C(N1CCN(C(c2ccccc2)c2ccccc2)CC1)n1nnc2ncc(Cl)cc21 [Compound 2, (4-Benzhydrylpiperazin-1-yl)(6-chloro[1,2,3]triazolo[4,5-b]pyridin-1-yl)methanone] | – | 173 to 175 °C (dec.)
O=C(N1CCN(C(c2ccc(F)cc2)c2ccc(F)cc2)CC1)n1nnc2ncccc21 [Compound 3, {4-[Bis(4-fluorophenyl)methyl]piperazin-1-yl}[1,2,3]triazolo[4,5-b]pyridin-1-ylmethanone] | – | 151 to 153 °C (dec.)
O=C(N1CCN(C(c2ccc(Cl)cc2)c2ccc(Cl)cc2)CC1)n1nnc2ncccc21 [Compound 4, {4-[Bis(4-chlorophenyl)methyl]piperazin-1-yl}[1,2,3]triazolo[4,5-b]pyridin-1-ylmethanone] | – | 163 to 165 °C (dec.)
O=C(N1CCN(C(c2ccc(F)cc2)c2ccc(F)cc2)CC1)n1nnc2ncc(Cl)cc21 [Compound 5, {4-[Bis(4-fluorophenyl)methyl]piperazin-1-yl}(6-chloro[1,2,3]triazolo[4,5-b]pyridin-1-yl)-methanone] | – | 167 to 169 °C (dec.)
O=C(N1CCN(C2c3ccccc3CCc3ccccc32)CC1)n1nnc2ncccc21 [Compound 7, [4-(10,11-Dihydro-5H-dibenzo[a,d]cyclohepten-5-yl)piperazin-1-yl][1,2,3]triazolo[4,5-b]-pyridin-1-ylmethanone] | 0.025 | 190 to 194 °C (dec.)
O=C(N1CCN(C2c3ccccc3-c3ccccc32)CC1)n1nnc2ncccc21 [Compound 8, [4-(9H-Fluoren-9-yl)piperazin-1-yl][1,2,3]triazolo[4,5-b]pyridin-1-ylmethanone] | – | 170 to 172 °C (dec.)
